Laboratory results published in patent publication US12304904B2, “Bicyclic [4,6,0] hydroxamic acids as HDAC inhibitors” (Valo Health, Inc., priority 2015, dated 2025).

Target: T1, HDAC6 (Homo sapiens, UniProt Q9UBN7)
T1 construct: Full length human recombinant HDAC6 protein were expressed in baculoviral system; made in house
T1 sequence (Q9UBN7 1-1215): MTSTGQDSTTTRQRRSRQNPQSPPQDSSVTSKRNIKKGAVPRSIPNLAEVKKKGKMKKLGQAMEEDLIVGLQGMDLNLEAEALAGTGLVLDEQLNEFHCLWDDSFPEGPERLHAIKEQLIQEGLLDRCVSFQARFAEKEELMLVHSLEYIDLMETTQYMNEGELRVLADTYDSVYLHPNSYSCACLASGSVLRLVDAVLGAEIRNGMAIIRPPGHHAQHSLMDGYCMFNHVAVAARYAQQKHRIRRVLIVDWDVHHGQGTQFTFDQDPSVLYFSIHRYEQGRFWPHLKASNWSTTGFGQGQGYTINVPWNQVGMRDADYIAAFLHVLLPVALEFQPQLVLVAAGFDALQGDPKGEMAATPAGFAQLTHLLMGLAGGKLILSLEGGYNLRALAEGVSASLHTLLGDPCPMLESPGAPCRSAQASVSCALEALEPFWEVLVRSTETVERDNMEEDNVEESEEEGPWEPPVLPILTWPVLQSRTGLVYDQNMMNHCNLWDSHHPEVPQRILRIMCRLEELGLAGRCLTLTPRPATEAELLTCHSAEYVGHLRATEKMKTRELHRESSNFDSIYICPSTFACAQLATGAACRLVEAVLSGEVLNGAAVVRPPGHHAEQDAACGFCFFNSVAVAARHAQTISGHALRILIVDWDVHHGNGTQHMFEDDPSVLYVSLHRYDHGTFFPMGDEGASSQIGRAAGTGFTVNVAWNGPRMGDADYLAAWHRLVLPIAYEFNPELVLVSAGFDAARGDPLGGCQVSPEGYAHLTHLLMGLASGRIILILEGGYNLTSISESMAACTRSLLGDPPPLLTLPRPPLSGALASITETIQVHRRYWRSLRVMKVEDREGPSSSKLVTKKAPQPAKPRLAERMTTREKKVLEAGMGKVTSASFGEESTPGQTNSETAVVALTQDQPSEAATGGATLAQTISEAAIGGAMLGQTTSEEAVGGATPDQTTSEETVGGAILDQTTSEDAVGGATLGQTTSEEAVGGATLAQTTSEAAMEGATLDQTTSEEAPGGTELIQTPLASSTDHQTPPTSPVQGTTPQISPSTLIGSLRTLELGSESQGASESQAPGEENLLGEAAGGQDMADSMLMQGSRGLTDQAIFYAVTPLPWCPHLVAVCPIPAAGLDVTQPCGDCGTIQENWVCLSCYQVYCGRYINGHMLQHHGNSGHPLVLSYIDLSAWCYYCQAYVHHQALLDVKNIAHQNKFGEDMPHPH
Experiment: In vitro histone deacetylase assay: enzymatic HDAC6 electrophoretic mobility shift assay
Type: biochemical
Conditions: full length human recombinant HDAC6, 1 nM enzyme, 2 μM peptide substrate RHKK(Ac)-NH2, 25° C.; read-out: Inhibitory Concentration (IC50) against HDAC6, Activity Range
Protocol: The enzymatic HDAC6 assay was performed using electrophoretic mobility shift assay. Full length human recombinant HDAC6 protein were expressed in baculoviral system and purified by affinity chromatography. The enzymatic reactions were assembled in 384 well plates in a total volume of 25 μL in a reaction buffer composing: 100 mM HEPES, pH7.5, 25 mM KCl, 0.1% bovine serum albumin, 0.01% Triton X-100, 1% DMSO (from compounds) 2 μM of the fluorescently labeled peptide substrate and enzyme. The enzyme was added at a final concentration of 1 nM. The peptide substrate RHKK(Ac)—NH2 was used. The compounds were tested at 12 concentrations spaced by 3× dilution intervals. Negative control samples (0%-inhibition in the absence of inhibitor) and positive control samples (100%-inhibition) were assembled in replicates of four in each assay plate. The reactions were incubated at 25° C. and quenched by the addition of 45 μL of termination buffer (100 mM HEPES, pH 7.5, 0.01% Triton X-100, 0.05% SDS).
The terminated assay plates were analyzed on LabChip® 3000 microfluidic electrophoresis instrument (Perkin Elmer/Caliper Life Sciences). The fluorescence intensity of the electrophoretically separated de-acetylated product and substrate peptide were measured. Activity in each sample was determined as the product to sum ratio (PSR): P/(S+P), where P is the peak height of the product peptide and S is the peak height of the substrate peptide. Percent inhibition (Pinh) was determined using the following equation:
Pinh=(PSR0%−PSRinh)/(PSR0%−PSR100%)*100, where PSRinh is the product sum ratio in the presence of inhibitor, PSR0% is the average product sum ration in the absence of inhibitor and PSR100% is the average product sum ratio in 100%-inhibition control samples. The IC50 values of inhibitors are determined by fitting the %-inhibition curves with 4 parameter dose-response model using XLfit 4 software.

IC50 [µM] | Compound
> 0.5 | O=C(NO)c1ccc2c(c1)OCCCNC2 [N-hydroxy-3,4,5,6-tetrahydro-2H-benzo[b][1,5]oxazocine-9-carboxamide]
≤ 0.1 | CC1(C(=O)N2CCCOc3cc(C(=O)NO)ccc3C2)CCOCC1 [N-hydroxy-5-(4-methyltetrahydro-2H-pyran-4-carbonyl)-3,4,5,6-tetrahydro-2H-benzo[b][1,5]oxazocine-9-carboxamide]
0.1 to 0.5 | O=C(NO)c1ccc2c(c1)OCCCN(C(=O)C1CCOCC1)C2 [N-hydroxy-5-(tetrahydro-2H-pyran-4-carbonyl)-3,4,5,6-tetrahydro-2H-benzo[b][1,5]oxazocine-9-carboxamide]
